These compounds were tested on Septoria nodorum (assay: Test for preventive effect on Septoria leaf blotch of wheat). Details: wheat seedlings (Norin-61-go), two-leaf stage, 50 ppm active ingredient, 10 ml per pot, evaluated 10 days after inoculation with Septoria nodorum.
Format: in vivo
Source text: [table] 10 Wheat seeds (variety: Norin-61-go) were sown in each plastic pot having a diameter of 6 cm, and grown in a greenhouse. […] Then, the seedlings were inoculated with Septoria nodorum […] controlled in a greenhouse. 10 Days after the inoculation, the total diseased area of the first leaves in each pot was observed and evaluated on the basis of the standards shown in Table 21.

| SMILES | Evaluation (total diseased area of the first leaves) |
| --- | --- |
| COC(=O)NCc1cc(C(C)=NOCc2ccccc2OC)ccc1Cl [A-93] | A (No diseased area) |
| COC(=O)NCc1cc(C(C)=NOCc2ccc(C(F)(F)F)cc2)ccc1F [A-376] | B (Diseased area of less than 5%) |
| COC(=O)NCc1cccc(C(C)=NOCc2ccccc2C(F)(F)F)c1 [A-348] | B (Diseased area of less than 5%) |
| COC(=O)NCc1cc(C(C)=NOCC(C)C)ccc1Cl [A-54] | A (No diseased area) |
| COC(=O)NCc1cc(C(C)=NOCc2cccc(C#N)n2)ccc1Cl [A-396] | A (No diseased area) |
| COC(=O)NCc1cc(C(C)=NOCc2cccc(C)n2)ccc1Cl (single isomer, unassigned) [A-286] | A (No diseased area) |
| COC(=O)NCc1cc(C(C)=NOC(C)c2ccccc2C)ccc1Cl (centres unmarked) [A-406] | A (No diseased area) |
| COC(=O)NCc1cc(C(=NOCc2ccccc2C)C2CC2)ccc1Cl [A-359] | B (Diseased area of less than 5%) |
| COC(=O)NCc1cc(C(C)=NOC2C=CC(C(Cl)(Cl)Cl)C2)ccc1Cl (centres unmarked) [A-444] | B (Diseased area of less than 5%) |
| COC(=O)NCc1cc(C(C#N)=NOCc2ccccc2Cl)ccc1C [A-21] | A (No diseased area) |
| COC(=O)NCc1cc(C(C)=NOCc2ccc(C#N)cc2)ccc1Cl [A-103] | B (Diseased area of less than 5%) |
| CCC(C)ON=C(C)c1ccc(Cl)c(CNC(=O)OC)c1 (centres unmarked) [A-53] | A (No diseased area) |
| COC(=O)NCc1cc(C(C)=NOCc2cccc(Cl)n2)ccc1Cl [A-285] | A (No diseased area) |
| CON=C(C)C(ON=C(C)c1ccc(Cl)c(CNC(=O)OC)c1)C(C)=NOC (centres unmarked) [A-412] | A (No diseased area) |
| COC(=O)NCc1cccc(C(C)=NOCc2c(Cl)cccc2Cl)c1 [A-389] | A (No diseased area) |
| COC(=O)NCc1cc(C(C)=NOCc2ccc(C)cn2)ccc1Cl [A-334] | A (No diseased area) |
| COC(=O)NCc1cccc(C(C)=NOCc2ccc(Cl)cc2)c1 [A-340] | B (Diseased area of less than 5%) |
| COC(=O)NCc1cc(C(C#N)=NOCCc2ccccc2)ccc1Cl [A-277] | B (Diseased area of less than 5%) |
| COC(=O)NCc1cc(C(C)=NOCc2cscn2)ccc1Cl [A-416] | A (No diseased area) |
| COC(=O)NCc1cc(C(C)=NOCc2cccc([N+](=O)[O-])c2)ccc1Cl [A-266] | B (Diseased area of less than 5%) |
| COC(=O)NCc1cc(C(C)=NOCc2ccccc2Cl)ccc1F [A-325] | A (No diseased area) |
| COC(=O)NCc1cc(C(C)=NOCc2cccc(C)c2)ccc1C [A-362] | A (No diseased area) |

| SMILES | Evaluation (total diseased area of the first leaves) |
| --- | --- |
| COC(=O)NCc1cc(C(C)=NOCC(=O)c2ccc(OC)cc2)ccc1Cl [A-404] | A (No diseased area) |
| COC(=O)NCc1cc(C(C#N)=NOCc2ccccc2Cl)ccc1Cl [A-8] | B (Diseased area of less than 5%) |
| COC(=O)NCc1cc(C(C)=NOCc2ccccc2F)ccc1C [A-342] | A (No diseased area) |
| COC(=O)NCc1cc(C(C)=NOCc2cccnc2C#N)ccc1Cl [A-397] | A (No diseased area) |
| COC(=O)NCc1cc(C(C)=NOCC(F)(F)F)ccc1Cl [A-70] | A (No diseased area) |
| COC(=O)NCc1cc(C(C)=NOCc2cccc(OC)c2)ccc1Cl [A-94] | A (No diseased area) |
| CC=CCON=C(C)c1ccc(Cl)c(CNC(=O)OC)c1 [A-189] | A (No diseased area) |
| COC(=O)N(Cc1cccc(OC)c1)Cc1cc(C(C)=NOCc2cccc(OC)c2)ccc1C [A-322] | A (No diseased area) |
| COC(=O)NCc1cc(C(C)=NOCc2ccccc2C)ccc1C [A-295] | B (Diseased area of less than 5%) |
| COC(=O)NCc1cc(C(C)=NOCc2cccc(C)[n+]2[O-])ccc1Cl [A-433] | B (Diseased area of less than 5%) |
| COC(=O)NCc1cccc(C(C)=NOCc2ccccc2F)c1 [A-398] | A (No diseased area) |
| CCC(=NOCc1cccc(OC)c1)c1ccc(Cl)c(CNC(=O)OC)c1 [A-304] | A (No diseased area) |
| COC(=O)NCc1cc(C(C)=NOCCc2ccccc2)ccc1C [A-369] | A (No diseased area) |
| COC(=O)NCc1cc(C(C)=NOC2C=CCC2OC)ccc1Cl (centres unmarked) [A-411] | A (No diseased area) |
| COC(=O)NCc1c(C)c(C)c(C)c(C(C)=NOCc2ccccc2)c1C [A-381] | A (No diseased area) |
| CCC(=NOCc1ccccc1Cl)c1ccc(Cl)c(CNC(=O)OC)c1 [A-296] | A (No diseased area) |
| COC(=O)NCc1cc(C(C)=NOCc2ncccc2C)ccc1Cl [A-306] | A (No diseased area) |
| COC(=O)NCc1cc(C(C)=NOCc2cccc(OC)c2)ccc1C [A-315] | A (No diseased area) |
| COC(=O)NCc1cc(C(C)=NOCc2cccc(C(=O)OC)c2)ccc1Cl [A-278] | B (Diseased area of less than 5%) |
| COC(=O)NCc1cc(C(C)=NOC(C)c2cccc(Cl)c2)ccc1F (centres unmarked) [A-379] | A (No diseased area) |
| CCC(=NOCc1ccccn1)c1ccc(Cl)c(CNC(=O)OC)c1 [A-305] | A (No diseased area) |
| COC(=O)NCc1cc(C(C)=NOC(C)c2cccc(OC)c2)ccc1Cl (centres unmarked) [A-312] | A (No diseased area) |

| SMILES | Evaluation (total diseased area of the first leaves) |
| --- | --- |
| COC(=O)NCc1cc(C(C)=NOCc2cccc(OC)c2)cc(C)c1Cl [A-157] | A (No diseased area) |
| COC(=O)NCc1cc(C(C)=NOCc2ccccc2[N+](=O)[O-])ccc1Cl [A-414] | A (No diseased area) |
| COC(=O)NCc1cc(C(C#N)=NOCc2ccccc2)ccc1C [A-20] | B (Diseased area of less than 5%) |
| COC(=O)NCc1cc(C(C)=NOCc2ccccn2)ccc1F [A-330] | B (Diseased area of less than 5%) |
| COC(=O)NCc1cccc(C(C)=NOCc2ccccc2Cl)c1 [A-338] | A (No diseased area) |
| COC(=O)NCc1cc(C(C)=NOCc2ccccn2)cc(C)c1Cl [A-355] | B (Diseased area of less than 5%) |
| CCC(=NOCC(C)=NOC)c1ccc(Cl)c(CNC(=O)OC)c1 [A-293] | A (No diseased area) |
| COC(=O)NCc1cc(C(C)=NOCc2cccc(Cl)c2)ccc1C [A-364] | A (No diseased area) |
| COC(=O)NCc1cc(C(C)=NOCc2ccccc2C#N)ccc1C [A-360] | A (No diseased area) |
| CON=C(C)CON=C(C)c1ccc(C)c(CNC(=O)OC)c1 [A-368] | A (No diseased area) |
| COC(=O)NCc1cc(C(C)=NOCc2cc(C)cc(C)c2)ccc1Cl [A-279] | B (Diseased area of less than 5%) |
| COC(=O)NCc1cc(C(C)=NOCc2ccc(Cl)c(Cl)c2)ccc1Cl [A-256] | A (No diseased area) |
| COC(=O)NCc1cc(C(C)=NOCc2cc(Cl)cc(Cl)c2)ccc1Cl [A-257] | A (No diseased area) |
| COC(=O)NCc1cc(C(C)=NOCc2nc(C(F)(F)F)cs2)ccc1Cl [A-432] | A (No diseased area) |
| COC(=O)NCc1cc(C(C)=NOCc2cc(C)ccc2C)ccc1Cl [A-258] | B (Diseased area of less than 5%) |
| COC(=O)NCc1cc(C(C)=NOCc2ccc3ccccc3n2)ccc1Cl [A-431] | A (No diseased area) |
| COC(=O)NCc1cc(C(C)=NOCC(=O)c2ccc(Cl)cc2)ccc1Cl [A-403] | A (No diseased area) |
| COC(=O)NCc1cc(C(C#N)=NOCc2ccccc2)ccc1Cl [A-7] | A (No diseased area) |
| COC(=O)NCc1cc(C(C)=NOCc2ccc(C(C)=O)o2)ccc1Cl [A-410] | A (No diseased area) |
| COC(=O)N(Cc1cc(C(C)=NOCc2ccccc2C#N)ccc1C)Cc1ccccc1C#N [A-361] | B (Diseased area of less than 5%) |
| CCCCCCCON=C(C)c1ccc(Cl)c(CNC(=O)OC)c1 [A-251] | A (No diseased area) |
